Experimental data taken from ChEMBL document CHEMBL1201862, “PubChem BioAssay data set” (2004).
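The compound was tested at five concentrations on cells cultured in 96-well plates, with a 48-hour exposure period. The concentration for 50% growth inhibition is given as GI50.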 The source made the active and inactive calls. Rule as the data show it: active = GI50 up to about 1.1 µM and inactive = higher.

Tests used:
Test in all cases: DTP human tumour cell line panel, 48 h
[1] = tested on: EKVX
[2] = tested on: NCI-H522
[3] = tested on: U-251
[4] = tested on: SN12C
[5] = tested on: ACHN
[6] = tested on: RXF 393
[7] = tested on: RPMI-8226
[8] = tested on: SK-MEL-28
[9] = tested on: HCT-116
[10] = tested on: LOX IMVI
[11] = tested on: OVCAR-5
[12] = tested on: SF-295
[13] = tested on: CAKI-1
[14] = tested on: HL-60
[15] = tested on: MDA-N
[16] = tested on: SK-OV-3
[17] = tested on: NCI/ADR-RES
[18] = tested on: Hs-578T
[19] = tested on: A498

Row | SMILES | GI50 [1] | GI50 [2] | GI50 [3] | GI50 [4] | GI50 [5] | GI50 [6] | GI50 [7] | GI50 [8] | GI50 [9] | GI50 [10] | GI50 [11] | GI50 [12] | GI50 [13] | GI50 [14] | GI50 [15] | GI50 [16] | GI50 [17] | GI50 [18] | GI50 [19]
1 | COc1ccc2c(c1)N=C1CSC(c3cc([N+](=O)[O-])ccc3Cl)N1C2 (configuration not stated) | 18.3 µM (inactive) | 21.5 µM (inactive) | 25.6 µM (inactive) | 16.3 µM (inactive) | 20 µM (inactive) | 19.8 µM (inactive) | 17.4 µM (inactive) | 17.2 µM (inactive) | 20.1 µM (inactive) | 33 µM (inactive) | 24 µM (inactive) | 30.5 µM (inactive) | 22 µM (inactive) | 22.5 µM (inactive) | 20.1 µM (inactive) | 25.2 µM (inactive) | 23.4 µM (inactive) | 39.8 µM (inactive) | 
2 | O=c1[nH]nc(-c2ccccc2)n1-c1cccc([N+](=O)[O-])c1 | > 100 µM (inactive) | > 100 µM (inactive) | > 100 µM (inactive) | > 100 µM (inactive) | > 100 µM (inactive) | > 100 µM (inactive) | > 100 µM (inactive) | > 100 µM (inactive) | > 100 µM (inactive) | > 100 µM (inactive) | > 100 µM (inactive) | > 100 µM (inactive) | 89.5 µM (inactive) |  | > 100 µM (inactive) | > 100 µM (inactive) | > 100 µM (inactive) | > 100 µM (inactive) | > 100 µM (inactive)
3 | Cc1ccc(/C=C2\CN(C)CC3C(c4ccc(C)cc4)=C(C#N)C(=O)NC23)cc1 (configuration not stated) | > 50 µM (inactive) | > 50 µM (inactive) | > 50 µM (inactive) | > 50 µM (inactive) | > 50 µM (inactive) | > 50 µM (inactive) | > 50 µM (inactive) | > 50 µM (inactive) | > 50 µM (inactive) | > 50 µM (inactive) | > 50 µM (inactive) | > 50 µM (inactive) | > 50 µM (inactive) |  | > 50 µM (inactive) | > 50 µM (inactive) | > 50 µM (inactive) | > 50 µM (inactive) | > 50 µM (inactive)
4 | O=S1(=O)CCN(Cc2ccccn2)CC1 | > 100 µM (inactive) | > 100 µM (inactive) | > 100 µM (inactive) | > 100 µM (inactive) | > 100 µM (inactive) | > 100 µM (inactive) | > 100 µM (inactive) | > 100 µM (inactive) | > 100 µM (inactive) | > 100 µM (inactive) | > 100 µM (inactive) | > 100 µM (inactive) | > 100 µM (inactive) |  | > 100 µM (inactive) | > 100 µM (inactive) | > 100 µM (inactive) | > 100 µM (inactive) | > 100 µM (inactive)
5 | NC(=O)NCCCC(NC(=O)OCCCCCn1ccc(=O)[nH]c1=O)C(=O)O (configuration not stated) | > 100 µM (inactive) |  | > 100 µM (inactive) | > 100 µM (inactive) | > 100 µM (inactive) | > 100 µM (inactive) | > 100 µM (inactive) | > 100 µM (inactive) | > 100 µM (inactive) | > 100 µM (inactive) | > 100 µM (inactive) | > 100 µM (inactive) | > 100 µM (inactive) | > 100 µM (inactive) | > 100 µM (inactive) | > 100 µM (inactive) | > 100 µM (inactive) | > 100 µM (inactive) | 
6 | N#CC1(C#N)NC(c2ccsc2)C(C#N)(C#N)NC1c1ccsc1 (configuration not stated) | > 100 µM (inactive) | > 100 µM (inactive) | > 100 µM (inactive) | > 100 µM (inactive) | > 100 µM (inactive) |  | > 100 µM (inactive) | > 100 µM (inactive) | > 100 µM (inactive) | > 100 µM (inactive) | > 100 µM (inactive) | > 100 µM (inactive) | > 100 µM (inactive) | > 100 µM (inactive) | > 100 µM (inactive) | > 100 µM (inactive) | > 100 µM (inactive) | > 100 µM (inactive) | > 100 µM (inactive)
7 | O=C(NCCCCNCCCNC(=O)c1cc(-c2ccccc2)nc2ccccc12)c1cc(-c2ccccc2)nc2ccccc12 | 1.99 µM (inactive) | 1.7 µM (inactive) | 1.91 µM (inactive) | 1.97 µM (inactive) | 1.9 µM (inactive) | 2.19 µM (inactive) | 2.5 µM (inactive) | 1.83 µM (inactive) | 1.8 µM (inactive) | 1.54 µM (inactive) |  | 1.77 µM (inactive) | 1.84 µM (inactive) | 1.71 µM (inactive) | 1.83 µM (inactive) |  | 2.26 µM (inactive) | 1.96 µM (inactive) | 2.08 µM (inactive)
8 | CN(C)CCCNc1ccc2nnn3c4ccc(OC(=O)c5ccccc5)cc4c(=O)c1c23 | 4.24 µM (inactive) | 2.84 µM (inactive) | 11.5 µM (inactive) | 5.06 µM (inactive) | 3.05 µM (inactive) | 4.44 µM (inactive) | 3.29 µM (inactive) | 15.8 µM (inactive) | 3.15 µM (inactive) | 2.17 µM (inactive) | 14.4 µM (inactive) | 10.9 µM (inactive) | 0.579 µM (active) |  | 13.8 µM (inactive) | 9.51 µM (inactive) | 12.5 µM (inactive) | 18.3 µM (inactive) | 8.41 µM (inactive)
